Earlier results, collected in paper PMC4047818 (Biochemistry, 2014).
Where two headings read alike, the source gives them in different places.

What was measured:
[1] = test system: insulin receptor; set-up: method as in 24 sources, one per row (each row's own in cited_ref): ref [58] = [58]; PMID 18048361; doi:10.1074/jbc.M709220200; Gauguin L.; Klaproth B.; Sajid W.; Andersen A. S.; McNeil K. A.; Forbes B. E.; De Meyts P. ( 2008 ) Structural basis for the lower affinity of the insulin-like growth factors for the insulin rec ||| ref [59] = [59]; PMID 9148904; doi:10.1074/jbc.272.20.12978; Kristensen C.; Kjeldsen T.; Wiberg F. C.; Schaffer L.; Hach M.; Havelund S.; Bass J.; Steiner D. F.; Andersen A. S. ( 1997 ) Alanine scanning mutagenesis of insulin . J. Biol. Chem. 272 , 1297 ||| ref [33] = [33]; PMID 17316105; doi:10.1089/dia.2006.0035; Becker R. H. A. ( 2007 ) Insulin glulisine complementing basal insulins: A review of structure and activity . Diabetes Technol. Ther. 9 , 109 – 121 . 17316105 10.1089/dia.2006.0035 ||| ref [60],[61] = [60]; PMID 3541911; doi:10.1042/bj2380345; Bajaj M.; Blundell T. L.; Horuk R.; Pitts J. E.; Wood S. P.; Gowan L. K.; Schwabe C.; Wollmer A.; Gliemann J.; Gammeltoft S. ( 1986 ) Coypu Insulin: Primary Structure, Conformation and Biolog || [61]; PMID 11445250; doi:10.1016/s0196-9781(01)00423-5; Conlon J. M. ( 2001 ) Evolution of the insulin molecule: Insights into structure-activity and phylogenetic relationships . Peptides 22 , 1183 – 1193 . 11445250 10.1016/s0196-9781(01)00423-5 ||| ref [66] = [66]; PMID 2268358; doi:10.1016/s0006-291x(05)80882-4; Burke G. T.; Hu S. Q.; Ohta N.; Schwartz G. P.; Zong L.; Katsoyannis P. G. ( 1990 ) Superactive insulins . Biochem. Biophys. Res. Commun. 173 , 982 – 987 . 2268358 10.1016/s0006-291x(05)80882-4 ||| ...; conditions: for relative affinity: insulin = 100
[2] = biological target: insulin receptor (Homo sapiens) (UniProt P06213); test: radioligand binding
UniProt P06213, sequence (P06213 763-1382): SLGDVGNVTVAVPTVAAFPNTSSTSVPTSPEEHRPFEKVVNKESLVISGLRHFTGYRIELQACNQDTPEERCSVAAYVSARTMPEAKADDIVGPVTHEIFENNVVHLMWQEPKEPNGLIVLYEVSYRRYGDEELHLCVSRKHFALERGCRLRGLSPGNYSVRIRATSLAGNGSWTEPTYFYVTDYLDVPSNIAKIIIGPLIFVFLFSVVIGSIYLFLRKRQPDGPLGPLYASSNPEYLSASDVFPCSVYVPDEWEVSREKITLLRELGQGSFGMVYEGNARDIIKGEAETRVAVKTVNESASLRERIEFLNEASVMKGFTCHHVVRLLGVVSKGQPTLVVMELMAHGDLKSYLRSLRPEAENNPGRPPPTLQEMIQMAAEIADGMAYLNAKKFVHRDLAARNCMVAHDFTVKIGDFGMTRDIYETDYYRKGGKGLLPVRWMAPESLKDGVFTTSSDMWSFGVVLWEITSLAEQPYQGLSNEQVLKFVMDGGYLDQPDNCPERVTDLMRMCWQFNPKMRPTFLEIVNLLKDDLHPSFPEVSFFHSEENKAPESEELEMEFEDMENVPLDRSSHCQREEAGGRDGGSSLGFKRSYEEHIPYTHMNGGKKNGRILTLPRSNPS

insulin, sequence (P01308 90-110): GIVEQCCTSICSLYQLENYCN

[AlaB3]-insulin: literature insulin analogue, Ala at B3
relative affinity ([1]; ref (6)): 134% | binding affinity ([1]; relative to HI, ref [59]): 134%

[ArgB5]winsulin: insulin with naturally occurring ArgB5 mutation
relative affinity ([1]; ref (10)): 40%

insulin glulisine: [LysB3,GluB29]-insulin analogue
affinity ([1]; relative to wild type, ref [33]): wild-type-like affinity

[AsnB5]winsulin: literature insulin analogue, Asn at B5
relative affinity ([1]; ref (12)): 46%

[AlaB5]-insulin: literature insulin analogue, Ala at B5
relative affinity ([1]; ref (9)): 31%

[SerB3]-insulin: literature insulin analogue, Ser at B3
relative affinity ([1]; ref (7)): 97% | binding affinity ([1]; relative to HI, ref [58]): 97%

[MetB6]winsulin: literature insulin analogue, Met at B6
relative affinity ([1]; ref (14)): 15%

[SerB8,desB30]winsulin: literature insulin analogue, Ser at B8, desB30
relative affinity ([1]; ref (18)): 23% | IR affinity relative to HI ([1]; published analogues, ref Table S5 of the Supporting Information): 23%

[ValB6]winsulin: literature insulin analogue, Val at B6
relative affinity ([1]; ref (14)): 3.3%

[AlaB4]winsulin: literature insulin analogue, Ala at B4
relative affinity ([1]; ref (6)): 54%

[PheB6]winsulin: literature insulin analogue, Phe at B6
relative affinity ([1]; ref (14)): 10%

[AlaB5]DKPwinsulin: DKP-insulin analogue, Ala at B5
relative affinity ([1]; ref (13)): 129%

[AlaB6]winsulin: literature insulin analogue, Ala at B6
relative affinity ([1]; ref (6, 14)): 1.4%

[LeuB8,desB30]winsulin: literature insulin analogue, Leu at B8, desB30
relative affinity ([1]; ref (18)): < 0.2%

[ProB3]-insulin: literature insulin analogue, Pro at B3
relative affinity ([1]; ref (7)): 54% | binding affinity ([1]; relative to HI, ref [58]): 54%

[AlaB1]winsulin: literature insulin analogue, Ala at B1
relative affinity ([1]; ref (6)): 79%

[AlaB2]winsulin: literature insulin analogue, Ala at B2
relative affinity ([1]; ref (6)): 110%

[SerB8]DKPwinsulin: DKP-insulin analogue, Ser at B8
relative affinity ([1]; ref (15, 17)): 90%

[Cys(B4–B10),desB30]-insulin: literature insulin analogue with an additional B4–B10 disulfide bond, desB30
relative affinity ([1]; ref (8)): 132% | affinity ([1]; relative to HI, ref [31]): 130%

[GlyB6]winsulin: literature insulin analogue, Gly at B6
relative affinity ([1]; ref (14)): 0.052%

[ThrB8,desB30]winsulin: literature insulin analogue, Thr at B8, desB30
relative affinity ([1]; ref (18)): < 0.2%

DKPwinsulin: monomeric insulin analogue containing three substitutions in the B-chain (AspB10, LysB28, ProB29)
relative affinity ([1]; ref (15)): 160%

insulin (from UniProt P01308)
Kd [2]: 300 pM

[AspB5]-insulin: literature insulin analogue, Asp at B5
relative affinity ([1]; ref (12)): 0.4% | binding affinity ([1]; relative to HI, ref [66]): 0.4%
